Source: US9232796B2, “Herbicidal compositions comprising 4-amino-3-chloro-5-fluoro-6-(4-chloro-2-fluoro-3-methoxyphenyl) pyridine-2-carboxylic acid or a derivative thereof and acetyl-CoA carboxylase (ACCase) inhibitors” (DOW AGROSCIENCES LLC, priority 2012, dated 2016)
Several values for one entry are separate records, joined by “and”; a condition that tells them apart may be missing. Identical values can stand only once.

Experiments:
SCPMA = assay: Example II in-water applied, greenhouse, transplanted paddy rice weeds; format: in vivo, Schoenoplectus maritimus (L.) Lye
Procedure: Weed seeds or nutlets of the desired test plant species were planted in puddled soil (mud) prepared by mixing a shredded, non-sterilized mineral soil (50.5 percent silt, 25.5 percent clay, and 24 percent sand, with a pH of about 7.6 and an organic matter content of about 2.9 percent) and water at a 1:1 volumetric ratio. The prepared mud was dispensed in 365 mL aliquots into 16-ounce (oz.) non-perforated plastic pots with a surface area of 86.59 square centimeters (cm^2) leaving a headspace of 3 centimeters (cm) in each pot. Mud was allowed to dry overnight prior to planting or transplanting. Rice seeds were planted in Sun Gro MetroMix® 306 planting mixture, which typically has a pH of 6.0 to 6.8 and an organic matter content of about 30 percent, in plastic plug trays. Seedlings at the second or third leaf stage of growth were transplanted into 860 mL of mud contained in 32-oz. non-perforated plastic pots with a surface area of 86.59 cm^2 4 days prior to herbicide application. The paddy was created by filling the headspace of the pots with 2.5 to 3 cm of water. […] The plants were grown for 4-22 days in a greenhouse with an approximate 14 hr. photoperiod which was maintained at about 29° C. during the day and 26° C. during the night. Nutrients were added as Osmocote® (19:6:12, N:P:K+minor nutrients) at 2 g per 16-oz. pot and 4 g per 32-oz. pot. Water was added on a regular basis to maintain the paddy flood, and supplemental lighting was provided with overhead metal halide 1000-Watt lamps as necessary. The plants were employed for testing when they reached the first through fourth true leaf stage.
Treatments consisted of the acid or esters of 4-amino-3-chloro-5-fluoro-6-(4-chloro-2-fluoro-3-methoxy-phenyl)pyridine-2-carboxylic acid (compound A) each formulated as an SC (suspension concentrate) and various herbicidal components alone and in combination.
For formulated compounds, a measured amount was placed in an individual 100 or 200 mL glass vial and was dissolved in a volume of 1.25% (v/v) Agri-Dex® crop oil concentrate to obtain application solutions.
Applications were made by injecting with a pipetter appropriate amounts of the application solutions, individually and sequentially, into the aqueous layer of the paddy. Control plants were treated in the same manner with the solvent blank. Applications were made so that all treated plant material received the same concentrations of acetone and crop oil concentrate.
(§1) The treated plants and control plants were placed in a greenhouse as described above and water was added as needed to maintain a paddy flood. After approximately 3 weeks the condition of the test plants as compared with that of the untreated plants was determined visually and scored on a scale of 0 to 100 percent where 0 corresponds to no injury or growth inhibition and 100 corresponds to complete kill.
(§2) Colby's equation was used to determine the herbicidal effects expected from the mixtures (Colby, S. R. 1967. Calculation of the synergistic and antagonistic response of herbicide combinations. Weeds 15:20-22.).
The following equation was used to calculate the expected activity of mixtures containing two active ingredients, A and B: Expected=A+B−(A×B/100)

ECHOR = assay: Example V (second) postemergence foliar-applied ternary mixtures, greenhouse, direct seeded rice weeds; format: in vivo, Echinochloa oryzoides (Ard.) Fritsch
Procedure: Seeds or nutlets of the desired test plant species were planted in a soil matrix prepared by mixing a sandy loam or loam soil (e.g., 32 percent silt, 23 percent clay, and 45 percent sand, with a pH of about 6.5 and an organic matter content of about 1.9 percent) and calcareous grit in an 80 to 20 ratio. The soil matrix was contained in plastic pots with a volume of 1 quart and a surface area of 83.6 square centimeters (cm^2). […] The plants were grown for 8-22 days in a greenhouse with an approximate 14 hr. photoperiod which was maintained at about 29° C. during the day and 26° C. during the night. Nutrients (Peters Excel® 15-5-15 5-Ca 2-Mg and iron chelate) were applied in the irrigation solution as needed and water was added on a regular basis. Supplemental lighting was provided with overhead metal halide 1000-Watt lamps as necessary. The plants were employed for testing when they reached the first through fourth true leaf stage.
Treatments consisted of the benzyl ester of 4-amino-3-chloro-5-fluoro-6-(4-chloro-2-fluoro-3-methoxy-phenyl)pyridine-2-carboxylic acid (Compound A), formulated as an SC (suspension concentrate), an ACCase inhibitor, and a third herbicidal component, each applied alone and in ternary combination. Forms of compound A were applied on an acid equivalent basis.
For treatments comprised of formulated compounds, measured amounts of compounds were placed individually in 25 mL glass vials and diluted in a volume of 1.25% (v/v) Agri-Dex® crop oil concentrate to obtain 12× stock solutions. […] Application solutions were prepared by adding an appropriate amount of each stock solution (e.g., 1 mL) and diluted to the appropriate final concentrations with the addition of 9 mL of an aqueous mixture of 1.25% (v/v) crop oil concentrate so that the final spray solutions contained 1.25% (v/v) crop oil concentrate.
As required, additional water and/or 97:3 v/v acetone/DMSO was added to individual application solutions so that the final acetone and DMSO concentrations of the application solutions being compared were 8.1% and 0.25%, respectively.
All stock solutions and applications solutions were visually inspected for compound compatibility prior to application. Spray solutions were applied to the plant material with an overhead Mandel track sprayer equipped with a 8002E nozzles calibrated to deliver 187 L/ha over an application area of 0.503 m^2 at a spray height of 18 inches (46 cm) above average plant canopy height. Control plants were sprayed in the same manner with the solvent blank.
as §1, with “watered by sub-irrigation” for “water was added as needed”, “prevent wash-off of the test compounds.” for “maintain a paddy flood.”, “weeks,” for “weeks”
as §2
The following equation was used to calculate the expected activity of mixtures containing three active ingredients, A, B, and C: Expected=A+B+C−((A×B+A×C+B×C)/100)+(A×B×C/10000)

COc1c(Cl)ccc(-c2nc(C(=O)O)c(Cl)c(N)c2F)c1F [Compound A Acid, 4-amino-3-chloro-6-(4-chloro-2-fluoro-3-methoxyphenyl)-5-fluoropyridine-2-carboxylic acid]
Visual Weed Control (%) - 21 DAA SCPMA Obs (SCPMA; 35 gae/ha): 0%

COc1c(Cl)ccc(-c2nc(C(=O)OCc3ccccc3)c(Cl)c(N)c2F)c1F [Compound A Benzyl Ester, benzyl ester of 4-amino-3-chloro-5-fluoro-6-(4-chloro-2-fluoro-3-methoxy-phenyl)pyridine-2-carboxylic acid]
Visual Weed Control (%) - 22 DAA ECHOR Obs (ECHOR; 8 gae/ha): 13% and 25%
Visual Weed Control (%)- 22 DAA ECHOR Obs (ECHOR; 8 gae/ha): 13%
Visual Weed Control (%) - 22 DAA ECHOR Obs (ECHOR; 16 gae/ha): 35%
Visual Weed Control (%)- 22 DAA ECHOR Obs (ECHOR; 16 gae/ha): 40%
Visual Weed Control (%) - 19 DAA SCPMA Obs (SCPMA; 35 gae/ha): 0%

CCCCOC(=O)[C@@H](C)Oc1ccc(Oc2ccc(C#N)cc2F)cc1 [Cyhalofop-butyl, butyl(2R)-2-[4-(4-cyano-2-fluorophenoxy)phenoxy]propanoate, reference compound]
Visual Weed Control (%)- 22 DAA ECHOR Obs (ECHOR; 17.5 gai/ha): 0%
Visual Weed Control (%) - 22 DAA ECHOR Obs (ECHOR; 35 gai/ha): 15%
Visual Weed Control (%)- 22 DAA ECHOR Obs (ECHOR; 35 gai/ha): 15%
Visual Weed Control (%) - 19 DAA SCPMA Obs (SCPMA; 180 gai/ha): 0%

C[C@@H](Oc1ccc(Oc2nc3ccc(Cl)cc3o2)cc1)C(=O)N(C)c1ccccc1F [Metamifop, (2R)-2-[4-[(6-chloro-2-benzoxazolyl)oxy]phenoxy]-N-(2-fluorophenyl)-N-methylpropanamide]
Visual Weed Control (%) - 21 DAA SCPMA Obs (SCPMA; 75 gai/ha): 0%
Visual Weed Control (%) - 21 DAA SCPMA Obs (SCPMA; 150 gai/ha): 0%

CCC/C(=N\OCC(C)Oc1ccc(Cl)cc1)C1=C(O)CC(C2CCCSC2)CC1=O (stereo not shown) [Profoxydim, 2-[1-[[2-(4-chlorophenoxy)propoxy]imino]butyl]-3-hydroxy-5-(tetrahydro-2H-thiopyran-3-yl)-2-cyclohexen-1-one, reference compound]
Visual Weed Control (%) - 22 DAA ECHOR Obs (ECHOR; 3.12 gai/ha): 0%
